Test results from patent US8163718B2, “Nucleoside analogues containing phosphonate or phosphonamide groups” (Gilead Sciences, Inc., priority 2008, dated 2012).

Columns and labels:
Assay in all cases: Cytostatic cell culture assay (GI50), SRB
Assay type in all cases: cell-based
[1] = test system: A549; settings: Homo sapiens, A549, 120 h; 5 days incubation
Excerpt: (§1) The assay is based on quantification of cell counts by a colorimetric detection of the cell associated proteins. The assay relies on the ability of sulforhodamine B (SRB) to bind to protein components of cells that have been fixed to tissue-culture plates by trichloroacetic acid (TCA). SRB is a bright-pink aminoxanthene dye with two sulfonic groups that bind to basic amino-acid residues under mild acidic conditions, and dissociate under basic conditions. As the binding of SRB is stoichiometric, the amount of dye extracted from stained cells is directly proportional to the cell mass.
(§2) Cell lines: All cell lines were obtained from ATCC (Manassas, Va.). Cultivation media containing Glutamax, and trypsin were purchased from Invitrogen (Carlsbad, Calif.). Doxorubicin, Clofarabine, TCA and SRB were from Sigma-Aldrich (St. Louis, Mo.). Gemcitabine was obtained from Moravek Biochemicals (Brea, Calif.)
(§3) • 1. Trypsinize the sub-confluent cells, count them, and adjust the cell concentrations according to the cell counts listed in Table 1. • 2. Distribute the cells into the 96-well plates in 150 μL of media. Incubate the plates overnight in humidified CO2 incubator at 37° C. • 3. Fix one plate of each cell line with TCA. Discard the cultivation media from the plates by flicking them gently and add 100 ul cold 10% (vol/vol) TCA to each well. Incubate the plates at 4 degree refrigerator for 1 hour. Discard TCA from the plates by flicking them gently. Rinse plates four times in a washing basin containing tap water. Store the plates at room temperature. These plates represent cell counts on day zero. • 4. Prepare a set of medium solutions containing various concentrations of tested compounds by making 5-fold serial dilutions in 96-well plate. Add 50 μL of the diluted compounds per well. Include controls with untreated cells and cells treated with doxorubicin, clofarabine and gemcitabine. • 5. Incubate the plates for 5 days at 37° C. • 6. Fix the plates with TCA. Discard the cultivation media from the plates by flicking them gently and add 100 ul cold 10% (vol/vol) TCA to each well. Incubate the plates at 4 degree refrigerator for 1 hour. Discard TCA from the plates by flicking them gently. Rinse plates four times in a washing basin containing tap water. • 7. Remove excess water by tapping the plates face down, gently on a paper towel. Allow the plates to air-dry at room temperature. • 8. Add 100 ul of 0.057% SRB solution in 1% (vol/vol) acetic acid to each well of the plates fixed with TCA on day zero and five. Leave at room temperature for 30 minutes. • 9. Flick the plates gently to discard SRB. Rinse the plates four times with 1% (vol/vol) Acetic Acid. • 10. Store the plates at 37 degree incubator to facilitate faster drying. • 11. Once the plates are completely dry, add 200 ul of 10 mM Tris base solution (pH 10.5) to each well. Leave at room temperature for 30 minutes for SRB to solubilize. • 12. Measure the OD at 500 nm in a microplate reader • 13. Calculate the percentage of cell-growth inhibition using the next formula: % of control cell growth=100×(ODsample−mean ODday0)/(ODneg control−mean ODday0)
(§4) For GI50 determination, plot a dose-response curve between the compound concentration and percent of growth inhibition. GI50 values can be derived by fitting dose-response curves using sigmoidal dose response equation.

[2] = test system: BT-549; settings: Homo sapiens, BT-549, 120 h; 5 days incubation
Excerpt: as §1, §2, §3, §4

[3] = test system: Du-145; settings: Homo sapiens, DU-145, 120 h; 5 days incubation
Excerpt: as §1, §2, §3, §4

[4] = test system: HCT-116; settings: Homo sapiens, HCT-116, 120 h; 5 days incubation
Excerpt: as §1, §2, §3, §4

[5] = test system: HCT-15; settings: Homo sapiens, HCT-15, 120 h; 5 days incubation
Excerpt: as §1, §2, §3, §4

[6] = test system: Hs-578; settings: Hs578, 120 h; 5 days incubation
Excerpt: as §1, §2, §3, §4

[7] = test system: NCI-H23; settings: Homo sapiens, NCI-H23, 120 h; 5 days incubation
Excerpt: as §1, §2, §3, §4

[8] = test system: PC3; settings: Homo sapiens, PC-3, 120 h; 5 days incubation
Excerpt: as §1, §2, §3, §4

Row | SMILES | GI50 [1] [nM] | GI50 [2] [nM] | GI50 [3] [nM] | GI50 [4] [nM] | GI50 [5] [nM] | GI50 [6] [nM] | GI50 [7] [nM] | GI50 [8] [nM]
1 | Nc1nc(NC2CC2)c2ncn(CCOCP(=O)(N3CCC[C@H]3C(=O)OCc3ccccc3)N3CCC[C@H]3C(=O)OCc3ccccc3)c2n1 [Example 51] | 1670 | 527 | 256 | 850 | 8500 | 96 | 263 | 214
2 | CCCOc1nc(N)nc2c1ncn2CCOCP(=O)(N[C@@H](C)C(=O)OC(C)C)Oc1ccccc1 (some centres unmarked) [Example 54] | 317 | 1770 | 65 | 840 | 2770 | 894 | 67 | 472
3 | CCCOc1nc(N)nc2c1ncn2CCOCP(=O)(N[C@@H](Cc1ccccc1)C(=O)OCC)Oc1ccccc1 (some centres unmarked) [Example 55] | 80 | 756 | 4 | 47 | 815 | 149 | 9 | 59
4 | CCCOc1nc(N)nc2c1ncn2CCOCP(=O)(Oc1ccccc1)N1CCC[C@H]1C(=O)OCc1ccccc1 (some centres unmarked) [Example 56] | 2130 | 1090 | 722 | 1930 | 3860 | 1490 | 389 | 1250
5 | CCCOc1nc(N)nc2c1ncn2CCOCP(=O)(Oc1ccccc1)N1CCC[C@H]1C(=O)OCC (some centres unmarked) [Example 57] | 2420 | 1120 | 372 | 1610 | 5200 | 1110 | 241 | 696
6 | CCCCOC(=O)[C@H](C)NP(=O)(COCCn1cnc2c(OC3CC3)nc(N)nc21)Oc1ccccc1 (some centres unmarked) [Example 58] | 204 | 585 | 1 | 114 | 1030 | 42 | 3 | 60
7 | CCCOc1nc(N)nc2c1ncn2CCOCP(=O)(OCOC(=O)OC(C)C)OCOC(=O)OC(C)C [Example 59] | 168 | 45 | 2 | 118 | 534 | 61 | 10 | 40
8 | COc1nc(N)nc2c1ncn2CCOCP(=O)(OCOC(=O)OC(C)C)OCOC(=O)OC(C)C [Example 60] | 91 | 42 | 2 | 79 | 766 | 22 | 5 | 52
9 | CCCOc1nc(N)nc2c1ncn2CCOCP(=O)(Oc1ccc(Cl)cc1)N1CCC[C@H]1C(=O)OCC (some centres unmarked) [Example 62] | 1870 | 4440 | 1 | 2790 | 10000 | 1070 | 49 | 44
10 | CCCOc1nc(N)nc2c1ncn2CCOCP(=O)(Oc1ccc(C#N)cc1)N1CCC[C@H]1C(=O)OCC (some centres unmarked) [Example 63] | 14 | 282 | 1 | 184 | 3350 | 7 | 1 | 2
